{"source": "patent US11491117B2", "about": "“Compounds for the prevention and treatment of glucose intolerance related conditions and obesity” (SORBONNE UNIVERSITÉ, priority 2017, dated 2022)", "key": {"[1]": {"test_system": "C57BL/6J mice fed control chow diet (CHD) or high fat diet (HFD)", "assay": "Chronic subcutaneous infusion in mice fed control chow or high fat diet: body growth, glucose homeostasis (IPGTT), insulin secretion, organ weight, liver triglycerides", "type": "in vivo, mouse", "method": "Six weeks-old C57BL/6J male mice (Janvier Labs, Courtaboeuf, France) were received and acclimated in specific pathogen free (SPF) maintenance condition. Mice had free access to a standard chow diet (R04-40, Safe, Augy, France) and were kept on 12 h light/dark cycle. After one week, a group of 12 mice was fed control carbohydrate diet (CHD) (D 12450Ki, Research diets, NJ) and a group of 12 mice was fed high fat (60% fat and sucrose) diet (HFD) (D12492i, Research diets, NJ).\nAfter three weeks of metabolite treatment (i.e. four weeks of HFD feeding) an intra-peritoneal glucose tolerance test (IPGTT) (2 g/kg) was performed in conscious mice following an overnight fast. Blood was collected from the tail vein before glucose injection and 15, 30, 60 and 120 minutes afterwards. Additional blood samples were collected during the IPGTT in GK rats 15, 90, 180 and 240 minutes after glucose injection. Blood glucose levels were determined using an Accu-Check® Performa (Roche Diagnostics, Meylan, France). Additional blood samples were collected at base line and 30 minutes after glucose injection in Microvette® CB 300 Lithium Heparin (Sarstedt, Marnay, France). Plasma was separated by centrifugation and stored at −80° C. until insulin radioimmunoassay. Evaluation of overall glucose tolerance was obtained from cumulative glycemia (GCum) and the ΔG, which were determined by the total increment of plasma glucose values during the IPGTT (GCum) and the cumulative glycemia during the test above baseline (ΔG). After six weeks of metabolite treatment, mice were killed by decapitation and organ were dissected and weighed. Half of liver, fat and pancreas samples were snap frozen in liquid nitrogen and stored at −80° C. for molecular studies, and the second half processed for histopathology. All procedures were authorized following review by the institutional ethic committee and carried out under national license condition (Ref 00486.02).\nBlood glucose was measured using an Accu-Check® Performa (Roche Diagnostics, Meylan, France) and plasma insulin was determined using Insulin ELISA kits (Mercodia, Uppsala, Sweden). For determination of liver triglycerides, liver samples (100 mg) were homogenized and incubated in NonidetP-40 (5%) and supernatants containing triglycerides were collected. Triglycerides concentration was quantified in the supernatant fraction using a colorimetric assay (ab65336, Abcam, Paris, France) by measuring OD at 570 nm. The ratio NAD/NADH was determined using a quantification kit (MAK037; SigmaAldrich, St Quentin, France) on extracts prepared from 20 mg pancreas tissue. Samples were homogenized in the extraction buffer and clarified by centrifugation. Supernatant was deproteinized by filtration through a 10-kDa cutoff spin filter (Millipore SAS, Molsheim, France). The assay was then performed according to the manufacturer's instructions.\nAs expected, mice fed HFD rapidly gained more weight than mice fed control diet and developed fasting hyperglycemia and marked glucose intolerance (FIG. 1A-1F)."}, "[2]": {"test_system": "C57BL/6J mice fed CHD or HFD", "assay": "Histology and immunohistochemistry of liver and pancreas of chronically treated mice", "type": "in vivo, mouse", "conditions": "for islet size (immunohistochemistry) / insulin positive area: mean±SEM", "method": "Tissues were drop-fixed in 4% paraformaldehyde (Sigma-Aldrich, Saint Quentin Fallavier, France) immediately after collection and put through an automated carousel processor for dehydration, clearing, and paraffin embedding (Leica, Nanterre, France). Sections were prepared for liver (6 μm), pancreas (6 μm) and adipose tissue ([…]) and mounted on slides (DPX polymerizing mountant, Sigma-Aldrich, Saint Quentin Fallavier, France). Hematoxylin and Eosin (H&E) was used to evaluate tissue morphology. Epitope-specific antibodies were used for immunohistochemistry detection of insulin on pancreas sections (Dako, Saint Aubin, France).\nFor Oil redO (ORO), livers were snap frozen in OCT (VWR, Fontenay-sous-Bois, France) and cut into 7-μm sections using a cryostat. Sections were rehydrated in PBS (Sigma-Aldrich, St Quentin, France) and incubated with an ORO staining solution (Sigma Aldrich, St Quentin, France). Slides were washed in deionized water and mounted with Vectashield mounting medium (Laboratoires Eurobio Abcys, LesUlis, France).\nFor immunohistochemistry analysis, pancreas sections were quenched with 3% H2O2, washed with TBS+0.1% (v/v) Tween-20 (or 0.05% v/v Triton X-100 for nuclear epitopes), blocked with TBS+3% (w/v) BSA and incubated with diluted primary antibodies and then with HRP-conjugated secondary antibody (Bio-Rad, Marnes-la-Coquette, France). Chromogenic detection was carried out with the DAB chromogen kit (Dako, Saint Aubin, France). Nuclei were counterstained with hematoxylin. Quantitative expression of all immunostainings was performed using positive pixels algorithm (Indica Labs, Corrales, N. Mex.). For double immunostaining and immunofluorescence analyses, pancreas sections were stained for insulin as described above and co-stained with i) primary Anti-Ki67 antibody (ab15580, Abcam, Paris, France) and secondary Donkey Anti-Goat IgG H&L conjugated to Alexa Fluor® 568 (ab175704, Abcam, Paris, France) ii) primary Mouse/Rat CD31/PECAM-1 Antibody (AF3628, Minneapolis, USA) and secondary Goat anti-Rabbit IgG H&L conjugated to Alexa Fluor 488 (A-11034, ThermoFisher, Villebon, France). Results are expressed as percentage of positive pixels, within islets where indicated. The quantification method is an automated observer-independent process based on section scanning and application of publicly available algorithms. Each biological replicate represents one slide per animal mounted with at least 3 tissue sections, representing 3 technical replicates, the mean and variance of which is presented as the result per biological replicate. All images were acquired on an Axiovert 200M microscope (Zeiss, Marly-le-Roi, France)."}, "[3]": {"conditions": "mice fed control diet, IPGTT, vs saline"}}, "data": [{"smiles": "Cc1ccc(O)cc1", "note": "[4-cresol]", "values": [{"measurement": "effect on body weight", "setting": "[1]; HFD-fed mice", "result": "strongly significant"}, {"measurement": "effect on glycemic control", "setting": "[1]; HFD-fed mice", "result": "strongly significant"}, {"measurement": "effect on insulin secretion", "setting": "[1]; HFD-fed mice", "result": "strongly significant"}, {"measurement": "liver weight", "setting": "[1]; HFD-fed mice", "result": "reduced"}, {"measurement": "ΔG parameter", "setting": "[1]; HFD-fed mice, IPGTT, vs HFD saline", "result": "normalized to the level of mice fed chow diet and treated with saline"}, {"measurement": "fasting glycemia", "setting": "[1]; HFD-fed mice, vs HFD saline", "result": "strong reduction"}, {"measurement": "fasting hyperinsulinemia", "setting": "[1]; HFD-fed mice, vs HFD saline", "result": "strong reduction"}, {"measurement": "increase in pancreas weight", "setting": "[1]; both diet groups, 6 weeks, vs saline", "result": 48.9, "unit": "%"}, {"measurement": "liver triglycerides content", "setting": "[1]; both diet groups, vs saline", "result": "systematic and dramatic reduction"}, {"measurement": "heart weight", "setting": "[1]; mice fed CHD or HFD, 6 weeks", "result": "not affected"}, {"measurement": "kidney weight", "setting": "[1]; mice fed CHD or HFD, 6 weeks", "result": "not affected"}, {"measurement": "acute glycemic response to the glucose challenge", "setting": "[1]; [3]", "result": "significant reduction"}, {"measurement": "glucose tolerance", "setting": "[1]; [3]", "result": "improved"}, {"measurement": "BMI", "setting": "[1]; mice fed control diet, end of experiment, vs saline", "result": "significant decrease in BMI"}, {"measurement": "body weight", "setting": "[1]; mice fed control diet, s.c. infusion 0.5 mg/kg/day, 42 days, vs saline", "result": "progressive reduction in body weight"}, {"measurement": "glucose-stimulated insulin secretion", "setting": "[1]; mice fed control diet, vs controls", "result": "significant increase"}, {"measurement": "cumulative glycemia during the IPGTT", "setting": "[1]; mice fed control diet, vs saline", "result": "significant reduction"}, {"measurement": "islet size (immunohistochemistry)", "setting": "[2]; CHD fed mice", "result": "153.60±14.18"}, {"measurement": "number of proliferative nuclei (KI67) in pancreas", "setting": "[2]; CHD-fed mice", "result": "significantly increased"}, {"measurement": "reduction in liver fat content (Oil-Red-O staining)", "setting": "[2]; HFD fed mice, P=0.009, to the level of saline-treated CHD-fed controls", "result": 40.7, "unit": "%"}, {"measurement": "islet size (immunohistochemistry)", "setting": "[2]; HFD fed mice", "result": "170.00±12.56"}, {"measurement": "number of proliferative nuclei (KI67) in pancreas", "setting": "[2]; HFD-fed mice", "result": "remained elevated"}, {"measurement": "CD31 positive cells (pancreas vascularization)", "setting": "[2]; both groups fed CHD or HFD", "result": "further significant increase"}, {"measurement": "liver fat content (Oil-Red-O staining)", "setting": "[2]; mice fed CHD", "result": "reduced"}, {"measurement": "islet density", "setting": "[2]; mice fed CHD or HFD, significant only in CHD-fed mice", "result": "strong increase"}, {"measurement": "insulin positive area", "setting": "[2]; mice fed CHD, statistically significant", "result": "185.40±22.95"}, {"measurement": "insulin positive area", "setting": "[2]; mice fed HFD, not statistically significant", "result": "171.90±21.62"}]}]}
